Entries after “also recorded” stand apart in the source; their conditions may differ.
How the values were obtained:
[1] = test system: breast cancer cells (MDA-MB-231); assay: CORA: Bn-O-glycans in media of MDA-MB-231 cells incubated with precursor, MALDI-TOF-MS; assay type: cell-based; conditions: MDA-MB-231, 0-250 μM; for lowest concentration at which Bn-O-glycans with the predicted sialylated core 2 structure were observed: 3 d
Procedure: (§1) To assess whether peracetylation of Bn-α-GalNAc enhances uptake and subsequent sensitivity, breast cancer cells (MDA-MB-231) were incubated with 0-250 μM Ac3GalNAc-α-Bn or Bn-α-GalNAc for 3 d. […] Further, peracetylation of Bn-α-GalNAc was stable in complete media for at least 3 d. Thus, peracetylation improved sensitivity, and at such low concentrations potential side effects should be limited, as explored below.
To optimize conditions, MDA-MB-231 cells were cultured with 0-250 μM Ac3GalNAc-α-Bn for 2-4 d. […] Thus, CORA should be performed with low concentrations of Ac3GalNAc-α-Bn. For most subsequent studies, cells were incubated with 50 μM Ac3GalNAc-α-Bn for 3 d.
Ac3GalNAc-α-Bn or Bn-α-GalNAc was dissolved to 50 or 100 mM in DMSO and further diluted to 5-250 μM in complete media with 5% (vol/vol) FBS, except for HUVEC and human dermal fibroblast cultures, which were incubated in ATCC preformulated media. Media with compound was administered 1 d (most cells) or 2 d (HUVECs and human dermal fibroblasts) after seeding. Cells were then incubated for 2-4 d with compound before media was collected.
(§2) Compound was added to complete media, and media was collected after incubation with cells. Media was run over a 10-kDa centrifugal filter (Amicon Ultra 4, Millipore) for ˜30 min at 2,465 g, and flow-through was collected. Bn-O-glycans were subsequently purified from flow-through with a Sep-Pak 3-cc C18 cartridge (Waters) by gravity chromatography. The column was equilibrated by two washes with 2 ml of acetonitrile and four washes with 2 ml of 0.1% (vol/vol) trifluoracetic acid (TFA). Media was applied and the column was washed four times with 2 ml of 0.1% (vol/vol) TFA for each wash. Bn-O-glycans were then eluted with two 1.5-ml applications of 50% (vol/vol) acetonitrile, 0.1% (vol/vol) TFA. Eluent was divided into three fractions, concentrated by CentriVap to remove organic solvents, and lyophilized.
Dried samples were permethylated. NaOH-DMSO (200 μl) slurry was added followed by 200 μl of methyl iodide to samples. Samples were shaken for 30 min and then spun down at 5,000 g for 5 min. Supernatant was collected and chloroform extraction was performed to isolate permethylated glycans. Chloroform (500 μl) and 500 μl of water was added to supernatant. The samples were mixed and centrifuged at 5,000 g for 1 min. Two more washes were performed with 500 μl of water each before evaporating chloroform by CentriVap for 30 min. Bn-O-glycans were then resuspended in 25 or 50 μl of 50% (vol/vol) methanol. Spotted: 0.5 μl of matrix (10 mg/ml […] (Sigma), 50% (vol/vol) acetonitrile, 0.1% (vol/vol) TFA) and 0.5 μl of sample on an Anchorchip target plate, air dried the spots and analyzed by MALDI-TOF-MS using an Ultraflex-II TOF-TOF system (Bruker Daltonics). […]

[2] = Stability of peracetylation in complete media; assay type: physicochemical
Procedure: as §1

HEK293 = assay: CORA: Bn-O-glycans from media of HEK293 cells, MALDI-TOF-MS; assay type: cell-based; conditions: HEK293, 50 μM, 3 d
Procedure: (§3) Adherent (HEK293) and suspension (Molt-4) cells were cultured in complete media containing 50 μM Ac3GalNAc-α-Bn or vehicle (dimethyl sulfoxide (DMSO)) for 3 d. Putative Bn-O-glycans from the media were separated from larger material with a cutoff membrane, purified by C18 chromatography, permethylated and analyzed by MALDI-TOF-MS. Here as elsewhere, the permethylated nonsulfated and/or nonphosphorylated glycans were analyzed.
as §2, with “Bn-O-glycans were then eluted with two 1.5-ml applications of 50% (vol/vol) acetonitrile, 0.1% (vol/vol) TFA. Eluent was divided into three fractions, concentrated by CentriVap to remove organic solvents, and lyophilized.” left out
(§4) Dried samples were permethylated. […] Spotted: 0.5 μl of matrix (10 mg/ml […] (Sigma), 50% (vol/vol) acetonitrile, 0.1% (vol/vol) TFA) and 0.5 μl of sample on an Anchorchip target plate, air dried the spots and analyzed by MALDI-TOF-MS using an Ultraflex-II TOF-TOF system (Bruker Daltonics). […]

Molt-4 = assay: CORA: Bn-O-glycans from media of Molt-4 cells, MALDI-TOF-MS; assay type: cell-based; conditions: Molt-4, 50 μM, 3 d
Procedure: as §3
as §2, with “Bn-O-glycans were then eluted with two 1.5-ml applications of 50% (vol/vol) acetonitrile, 0.1% (vol/vol) TFA. Eluent was divided into three fractions, concentrated by CentriVap to remove organic solvents, and lyophilized.” left out
as §4

cells = assay: CORA with the isomer Ac3GlcNAc-β-Bn: secretion of Bn-O-glycans; assay type: cell-based
Procedure: CORA is an approach for both amplifying and profiling the mucin-type O-glycome in living cells. […] For example, MS analyses of β-eliminated O-glycans from WEHI-3 cells have not identified sialyl-LeX on core 2 O-glycans, a critical component on PSGL-1 recognized by P-selectin, which binds WEHI-3 cells. […] Thus the novel structures identified are natural O-glycans, mostly present on glycoproteins at low abundance.
CORA was performed on cells with mutant or wild-type C1galt1c1 (Cosmc), a chaperone known to be essential for T-synthase activity. Only cells with functional Cosmc and active T-synthase secreted Bn-O-glycans when we administered Ac3GalNAc-α-Bn (FIG. 2A-D).
Compound was added to complete media, and media was collected after incubation with cells. Media was run over a 10-kDa centrifugal filter (Amicon Ultra 4, Millipore) for ˜30 min at 2,465 g, and flow-through was collected. Bn-O-glycans were subsequently purified from flow-through with a Sep-Pak 3-cc C18 cartridge (Waters) by gravity chromatography. […]
as §4

| Compound | lowest concentration at which Bn-O-glycans with the predicted sialylated core 2 structure were observed [1] [µM] | effect of increasing concentration on Bn-O-glycan abundance ([1]; 2-4 d) | lowest concentration at which Bn-O-glycans in culture media were seen ([1]; 2 d) [µM] | peracetylation stable in complete media [2] | uptake and modification of the O-glycan precursor by glycosyltransferases (core 1- and core 2-based Bn-O-glycan compositions observed) (HEK293) | uptake and modification of the O-glycan precursor by glycosyltransferases (core 1- and core 2-based Bn-O-glycan compositions observed) (Molt-4) | Bn-O-glycans secreted by cells incubated with the compound (cells) |
| --- | --- | --- | --- | --- | --- | --- | --- |
| CC(=O)N[C@H]1[C@@H](OCc2ccccc2)O[C@H](CO)[C@H](O)[C@@H]1O [Bn-α-GalNAc, reference compound] | 250 | – | – | – | – | – | – |
| CC(=O)N[C@H]1[C@@H](OCc2ccccc2)O[C@H](COC(C)=O)[C@H](OC(C)=O)[C@@H]1OC(C)=O [Ac3GalNAc-α-Bn, peracetylated benzyl-α-N-acetylgalactosamine] | 25 | shifted abundance from disialylated to monosialylated core 2 | 5 | at least 3 d | efficient uptake and modification | efficient uptake and modification | – |
| CC(=O)N[C@H]1[C@H](OCc2ccccc2)O[C@H](COC(C)=O)[C@@H](OC(C)=O)[C@@H]1OC(C)=O [Ac3GlcNAc-β-Bn] | – | – | – | – | – | – | no glycans or a trisaccharide (Sia-Gal-GlcNAc-Bn) only; also recorded: no Bn-O-glycans or only the simple trisaccharide Neu5Ac-Gal-GlcNAc-Bn |
